Data set [1] addresses T1, H+,K+-ATPase (gastric mucous membrane microsomal fraction) (Sus scrofa, UniProt P19156).
T1 construct: The obtained microsomal fraction was used as a proton, potassium-adenosine triphosphatase standard product; from tissue; host or cells: swine stomach, gastric mucous membrane microsomal fraction
The experiment in a line: Proton potassium-adenosine triphosphatase (H+,K+-ATPase) inhibitory activity test. Type of data set: biochemical. To be noted: swine gastric microsomal fraction, pH 6.5, 37° C., 30 min preincubation. The method, then:
Proton Potassium-Adenosine Triphosphatase (H^+,K^+-ATPase) Inhibitory Activity Test According to the method [Biochim. Biophys. Acta, 728, 31 (1983)] of Wallmark et al., a gastric mucous membrane microsomal fraction was prepared from the stomach of swine. First, the stomach was removed, washed with tap water, immersed in 3 mol/L brine, and the surface of the mucous membrane was wiped with a paper towel. The gastric mucous membrane was detached, chopped, and homogenized in a 0.25 mol/L saccharose solution (pH 6.8) containing 1 mmol/L EDTA and 10 mmol/L tris-hydrochloric acid using polytron (Kinematica). The obtained homogenate was centrifuged at 20,000×g for 30 min and the supernatant was centrifuged at 100,000×g for 90 min. The precipitate was suspended in 0.25 mol/L saccharose solution, superimposed on a 0.25 mol/L saccharose solution containing 7.5% Ficoll, and centrifuged at 100,000×g for 5 hr. The fraction containing the interface between the both layers was recovered, and centrifugally washed with 0.25 mol/L saccharose solution. The obtained microsomal fraction was used as a proton, potassium-adenosine triphosphatase standard product. […] The enzyme reaction was started by adding 5 μL of a 2 mmol/L-adenosine triphosphate tris salt solution (50 mmol/L HEPES-tris buffer (5 mmol/L magnesium chloride, pH 6.5)). The enzyme reaction was carried out at 37° C. for 20 min, and 15 μL of a malachite green solution (0.12% malachite green solution in sulfuric acid (2.5 mol/L), 7.5% ammonium molybdate and 11% Tween 20 were mixed at a ratio of 100:25:2) was added to quench the reaction. […] In addition, the amount of the inorganic phosphoric acid in the reaction solution free of potassium chloride was measured in the same manner, which was subtracted from the inorganic phosphoric acid amount in the presence of potassium chloride to determine the proton, potassium-adenosine triphosphatase activity.

In data set [2] the test system is HepG2 cells. The experiment in a line: Intracellular ATP content in HepG2 cells (cytotoxicity). Format: cell-based, human. The note with it: HepG2, 30 μM, culture for one day, relative value to control, ATPLite, n≧3 average. The procedure:
Human liver cancer-derived cell line HepG2 (ATCC No. HB-8065) was passaged using Dulbecco's Modified Eagle medium (DMEM; Invitrogen) containing 10% fetal bovine serum (FBS; TRACE SCIENTIFIC LTD.), 1 mmol/L sodium pyruvate (Invitrogen), 2 mmol/L L-glutamine (Invitrogen), 50 IU/mL penicillin (Invitrogen) and 50 μg/mL streptomycin (Invitrogen) at 5% CO2, 37° C. The test reagent was prepared with DMSO to 10 mM, and further diluted with DMEM medium containing 0.5% FBS, 1 mmol/L sodium pyruvate, 2 mmol/L L-glutamine, 50 IU/mL penicillin and 50 μg/mL streptomycin to a final concentration of DMSO of 0.1%. HepG2 (2×10^4 cells/well) was cultured on a 96 well white plate (Costar) with the test reagent at 5% CO2, 37° C. After culture for one day, the intracellular ATP content was measured using ATPLite™ (PerkinElmer Life Sciences). The results are shown in Table 24 (n≧3, average value±SD) as a relative value (%) to control (without addition of drug) at 30 μM.

Ten compounds from patent US7498337B2, “Acid secretion inhibitor” (Takeda Pharmaceutical Company Limited, priority 2005, dated 2009) can be followed below.

T1 sequence (P19156 2-1034 limits assumed): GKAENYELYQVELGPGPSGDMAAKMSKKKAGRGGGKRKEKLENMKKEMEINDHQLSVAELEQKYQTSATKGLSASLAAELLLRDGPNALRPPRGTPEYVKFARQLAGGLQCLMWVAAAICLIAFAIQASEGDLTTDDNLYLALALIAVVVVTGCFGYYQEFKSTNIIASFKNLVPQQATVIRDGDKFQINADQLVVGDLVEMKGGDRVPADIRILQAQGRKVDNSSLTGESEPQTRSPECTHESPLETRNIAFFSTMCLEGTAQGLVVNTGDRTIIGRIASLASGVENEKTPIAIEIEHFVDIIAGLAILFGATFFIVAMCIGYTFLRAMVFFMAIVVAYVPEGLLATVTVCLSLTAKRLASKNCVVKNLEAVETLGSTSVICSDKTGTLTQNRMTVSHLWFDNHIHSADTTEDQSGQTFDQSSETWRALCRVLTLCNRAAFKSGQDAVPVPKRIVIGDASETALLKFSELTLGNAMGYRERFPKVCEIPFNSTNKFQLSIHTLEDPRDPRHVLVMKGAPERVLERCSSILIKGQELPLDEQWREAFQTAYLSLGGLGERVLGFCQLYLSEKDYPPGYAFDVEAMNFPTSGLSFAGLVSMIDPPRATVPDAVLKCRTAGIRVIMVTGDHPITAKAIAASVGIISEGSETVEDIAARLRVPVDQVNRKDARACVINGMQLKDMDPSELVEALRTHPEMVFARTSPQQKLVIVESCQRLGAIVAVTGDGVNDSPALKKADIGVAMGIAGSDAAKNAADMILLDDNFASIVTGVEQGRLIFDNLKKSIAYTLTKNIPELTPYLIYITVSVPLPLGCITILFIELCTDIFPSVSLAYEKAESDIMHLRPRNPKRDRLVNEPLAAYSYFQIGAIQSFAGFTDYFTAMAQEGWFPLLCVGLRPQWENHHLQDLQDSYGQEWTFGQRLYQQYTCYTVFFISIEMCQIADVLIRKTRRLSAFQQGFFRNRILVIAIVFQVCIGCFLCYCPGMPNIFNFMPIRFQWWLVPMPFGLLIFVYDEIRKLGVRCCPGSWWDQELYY
T1 sequence (P18434 whole entry partner): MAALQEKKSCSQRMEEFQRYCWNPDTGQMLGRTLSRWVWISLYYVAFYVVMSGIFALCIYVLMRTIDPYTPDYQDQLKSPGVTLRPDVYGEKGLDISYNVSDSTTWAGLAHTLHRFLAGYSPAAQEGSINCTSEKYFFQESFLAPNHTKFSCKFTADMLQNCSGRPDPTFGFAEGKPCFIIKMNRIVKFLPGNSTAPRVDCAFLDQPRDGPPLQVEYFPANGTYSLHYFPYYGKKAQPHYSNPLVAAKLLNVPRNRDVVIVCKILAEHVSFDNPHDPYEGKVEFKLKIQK

The compound `CNCc1cc(-c2ccccc2)n(S(=O)(=O)c2ccc(OC)nc2)c1.Cl` [Example 2, 1-{1-[(6-methoxypyridin-3-yl)sulfonyl]-5-phenyl-1H-pyrrol-3-yl}-N-methylmethanamine hydrochloride] returned an IC50 in data set [1] of 13 nM. In addition, the “ATP content (%, 30 μM)” value in data set [2] was found to be 45.2%.
Turning to `CNCc1cc(-c2ccccc2)n(S(=O)(=O)c2cnc(NC)nc2)c1.Cl` [Example 5, N-methyl-1-{1-[2-(methylamino)pyrimidin-5-ylsulfonyl]-5-phenyl-1H-pyrrol-3-yl}methanamine hydrochloride], in data set [1], the IC50 stood at 65 nM. The “ATP content (%, 30 μM)” value in data set [2] is 73.9%.
In data set [1], `CNCc1cc(-c2ccccc2)n(S(=O)(=O)c2cnc(C)nc2)c1.Cl.Cl` [Example 7, N-methyl-1-[1-(2-methylpyrimidin-5-ylsulfonyl)-5-phenyl-1H-pyrrol-3-yl]-methanamine dihydrochloride] displayed an IC50 of 34 nM. Further, in data set [2], the “ATP content (%, 30 μM)” value is recorded as 76.5%.
For `CNCc1cc(-c2ccccc2F)n(S(=O)(=O)c2cccnc2)c1.O=C(O)/C=C/C(=O)O` [Example 8, 1-[5-(2-fluorophenyl)-1-(pyridin-3-ylsulfonyl)-1H-pyrrol-3-yl]-N-methylmethanamine fumarate], in that order: 22 nM and 87.9%.
As for `CNCc1cc(-c2cscc2C)n(S(=O)(=O)c2cccnc2)c1.Cl.Cl` [Example 29, N-methyl-1-[5-(4-methyl-3-thienyl)-1-(pyridin-3-ylsulfonyl)-1H-pyrrol-3-yl]methanamine dihydrochloride], in data set [1], the concentration for half-maximal inhibition (IC50) came out at 41 nM. Further, in data set [2], the “ATP content (%, 30 μM)” value was determined as 71.5%.
As for `CNCc1cc(-c2ccc(F)cc2F)n(S(=O)(=O)c2cccnc2)c1.Cl.Cl` [Example 32, 1-[5-(2,4-difluorophenyl)-1-(pyridin-3-ylsulfonyl)-1H-pyrrol-3-yl]-N-methylmethanamine dihydrochloride], the IC50 in data set [1] was determined as 8.9 nM. Besides, the “ATP content (%, 30 μM)” value in data set [2] came out at 53.6%.
In turn, `CNCc1cn(S(=O)(=O)c2cccnc2)c(-c2ccccc2)c1F.Cl.Cl` [Example 41, 1-[4-fluoro-5-phenyl-1-(pyridin-3-ylsulfonyl)-1H-pyrrol-3-yl]-N-methylmethanamine dihydrochloride] yielded an IC50 in data set [1] of 43 nM. Further, the “ATP content (%, 30 μM)” value in data set [2] is 86.7%.
On to `CNCc1cc(-c2ccccc2F)n(S(=O)(=O)c2ccc(C)nc2)c1.Cl.Cl` [Example 44, 1-{5-(2-fluorophenyl)-1-[(6-methylpyridin-3-yl)sulfonyl]-1H-pyrrol-3-yl}-N-methylmethanamine dihydrochloride], for which the midpoint of inhibition in data set [1], the IC50, lay at 48 nM. For the same compound, the “ATP content (%, 30 μM)” value in data set [2] is listed as 78.5%.
`CNCc1cc(-c2ccccc2C)n(S(=O)(=O)c2cccnc2)c1.O=C(O)/C=C/C(=O)O` [Example 47, N-methyl-1-[5-(2-methylphenyl)-1-(pyridin-3-ylsulfonyl)-1H-pyrrol-3-yl]methanamine fumarate] gave an IC50 in data set [1] of 58 nM. Further, the “ATP content (%, 30 μM)” value in data set [2] came out at 81.8%.
In data set [1], `CNCc1cc(-c2cccnc2F)n(S(=O)(=O)c2cccnc2)c1.O=C(O)/C=C/C(=O)O` [Example 74, 1-[5-(2-fluoropyridin-3-yl)-1-(pyridin-3-ylsulfonyl)-1H-pyrrol-3-yl]-N-methylmethanamine fumarate] registered an IC50 of 210 nM. Besides, the “ATP content (%, 30 μM)” value in data set [2] came out at 95.2%.
